Like-named read-outs stand apart in the source and are kept apart here.
Tests used:
[1] = test system: patients with moderate to severe chronic low back pain; experiment: Opioid Associated Adverse Event Score (OAAES), low back pain study; type: in vivo, human; settings: through the treatment period; ITT population
Text: The OAAES is a derived measure using the maximum severity for each of six opioid-associated adverse events (constipation, nausea, vomiting, dizziness, somnolence, and pruritis). For each patient, a maximum severity score (mild=1, moderate=2, and severe=3) was summed for each of the six treatment emergent opioid-associated adverse events that were present. […]

[2] = test system: patients with moderate to severe chronic pain due to osteoarthritis of the hip or knee
[3] = 3-week study, intent to treat population
[4] = Week 1, Days 1-3: 10 mg OXY/d, Days 4-8: 20 mg OXY/d

## COc1ccc2c3c1O[C@H]1C(=O)CC[C@@]4(O)[C@@H](C2)N(C)CC[C@]314 [OXY QID, oxycodone]
[1]
  Opioid Associated Adverse Event Score (OAAES), maximum: 16.0
  Opioid Associated Adverse Event Score (OAAES), mean (SD): 5.6 (3.95)
  Opioid Associated Adverse Event Score (OAAES), median: 5.0
  Opioid Associated Adverse Event Score (OAAES), minimum: 0.0
[2]; [3]
  Discontinuation of treatment because of adverse event: Any adverse event, % of patients: 28.4%
  Discontinuation of treatment because of adverse event: Any adverse event, number of patients: 29
  Discontinuation of treatment because of adverse event: Constipation, % of patients: 1.0%
  Discontinuation of treatment because of adverse event: Constipation, number of patients: 1
  Discontinuation of treatment because of adverse event: Diarrhea, % of patients: 0.0%
  Discontinuation of treatment because of adverse event: Diarrhea, number of patients: 0
  Discontinuation of treatment because of adverse event: Dizziness, % of patients: 1.0%
  Discontinuation of treatment because of adverse event: Dizziness, number of patients: 1
  Discontinuation of treatment because of adverse event: Euphoric mood, % of patients: 0.0%
  Discontinuation of treatment because of adverse event: Euphoric mood, number of patients: 0
  Discontinuation of treatment because of adverse event: Eye disorders, % of patients: 0.0%
  Discontinuation of treatment because of adverse event: Eye disorders, number of patients: 0
  Discontinuation of treatment because of adverse event: Gastrointestinal disorders, % of patients: 12.7%
  Discontinuation of treatment because of adverse event: Gastrointestinal disorders, number of patients: 13
  Discontinuation of treatment because of adverse event: General disorders and administration site conditions, % of patients: 2.0%
  Discontinuation of treatment because of adverse event: General disorders and administration site conditions, number of patients: 2
  Discontinuation of treatment because of adverse event: Headache, % of patients: 2.0%
  Discontinuation of treatment because of adverse event: Headache, number of patients: 2
  Discontinuation of treatment because of adverse event: Lethargy, % of patients: 0.0%
  Discontinuation of treatment because of adverse event: Lethargy, number of patients: 0
  Discontinuation of treatment because of adverse event: Nausea, % of patients: 6.9%
  Discontinuation of treatment because of adverse event: Nausea, number of patients: 7
  Discontinuation of treatment because of adverse event: Nervous system disorders, % of patients: 7.8%
  Discontinuation of treatment because of adverse event: Nervous system disorders, number of patients: 8
  Discontinuation of treatment because of adverse event: Pruritus, % of patients: 1.0%
  Discontinuation of treatment because of adverse event: Pruritus, number of patients: 1
  Discontinuation of treatment because of adverse event: Psychiatric disorders, % of patients: 1.0%
  Discontinuation of treatment because of adverse event: Psychiatric disorders, number of patients: 1
  Discontinuation of treatment because of adverse event: Sedation, % of patients: 2.0%
  Discontinuation of treatment because of adverse event: Sedation, number of patients: 2
  Discontinuation of treatment because of adverse event: Skin and subcutaneous tissue disorders, % of patients: 2.9%
  Discontinuation of treatment because of adverse event: Skin and subcutaneous tissue disorders, number of patients: 3
  Discontinuation of treatment because of adverse event: Sommolence, % of patients: 2.0%
  Discontinuation of treatment because of adverse event: Sommolence, number of patients: 2
  Discontinuation of treatment because of adverse event: Upper abdominal pain, % of patients: 0.0%
  Discontinuation of treatment because of adverse event: Upper abdominal pain, number of patients: 0
  Discontinuation of treatment because of adverse event: Vomiting, % of patients: 3.9%
  Discontinuation of treatment because of adverse event: Vomiting, number of patients: 4
[2]; [4]
  Adverse event Constipation, % of patients: 12.7%
  Adverse event Constipation, number of patients: 13
  Adverse event Dizziness, % of patients: 16.7%
  Adverse event Dizziness, number of patients: 17
  Adverse event Dry Mouth, % of patients: 5.9%
  Adverse event Dry Mouth, number of patients: 6
  Adverse event Fatigue, % of patients: 2.9%
  Adverse event Fatigue, number of patients: 3
  Adverse event Headache, % of patients: 16.7%
  Adverse event Headache, number of patients: 17
  Adverse event Nausea, % of patients: 23.5%
  Adverse event Nausea, number of patients: 24
  Adverse event Pruritus, % of patients: 7.8%
  Adverse event Pruritus, number of patients: 8
  Adverse event Sommolence, % of patients: 15.7%
  Adverse event Sommolence, number of patients: 16
  Adverse event Vomiting, % of patients: 3.9%
  Adverse event Vomiting, number of patients: 4
[2]; Week 2, 30 mg OXY/d
  Adverse event Constipation, % of patients: 7.1%
  Adverse event Constipation, number of patients: 6
  Adverse event Dizziness, % of patients: 11.8%
  Adverse event Dizziness, number of patients: 10
  Adverse event Dry Mouth, % of patients: 4.7%
  Adverse event Dry Mouth, number of patients: 4
  Adverse event Fatigue, % of patients: 0.0%
  Adverse event Fatigue, number of patients: 0
  Adverse event Headache, % of patients: 3.5%
  Adverse event Headache, number of patients: 3
  Adverse event Nausea, % of patients: 14.1%
  Adverse event Nausea, number of patients: 12
  Adverse event Pruritus, % of patients: 5.9%
  Adverse event Pruritus, number of patients: 5
  Adverse event Sommolence, % of patients: 7.1%
  Adverse event Sommolence, number of patients: 6
  Adverse event Vomiting, % of patients: 3.5%
  Adverse event Vomiting, number of patients: 3
[2]; Week 3, 40 mg OXY/d
  Adverse event Constipation, % of patients: 2.7%
  Adverse event Constipation, number of patients: 2
  Adverse event Dizziness, % of patients: 5.3%
  Adverse event Dizziness, number of patients: 4
  Adverse event Dry Mouth, % of patients: 0.0%
  Adverse event Dry Mouth, number of patients: 0
  Adverse event Headache, % of patients: 8.0%
  Adverse event Headache, number of patients: 6
  Adverse event Nausea, number of patients: 8
  Adverse event Pruritus, % of patients: 4.0%
  Adverse event Pruritus, number of patients: 3
  Adverse event Sommolence, % of patients: 2.7%
  Adverse event Sommolence, number of patients: 2
  Adverse event Vomiting, % of patients: 12.0%
  Adverse event Vomiting, number of patients: 9
[2]; of the 360 patients who received study drug, 3-week treatment
  Patients who discontinued treatment because of adverse events (number): 29

— patent US20060009478A1, “Methods for the treatment of back pain” (priority 2003, published 2006)
